Values of other authors as cited in patent US8076148B2, “Cytochrome c protein and assay” (GE Healthcare UK Limited, priority 2003, dated 2011).

Assays:
[1] = system: rat pheochromocytoma-6 (PC6) cells; details: PC6 cells expressing rat cytochrome c-GFP
[2] = system: caspase-9; details: in vitro
[3] = target: T1, Apaf-1 (Homo sapiens, UniProt O14727); details: in vitro
T1 sequence (O14727 1-1248): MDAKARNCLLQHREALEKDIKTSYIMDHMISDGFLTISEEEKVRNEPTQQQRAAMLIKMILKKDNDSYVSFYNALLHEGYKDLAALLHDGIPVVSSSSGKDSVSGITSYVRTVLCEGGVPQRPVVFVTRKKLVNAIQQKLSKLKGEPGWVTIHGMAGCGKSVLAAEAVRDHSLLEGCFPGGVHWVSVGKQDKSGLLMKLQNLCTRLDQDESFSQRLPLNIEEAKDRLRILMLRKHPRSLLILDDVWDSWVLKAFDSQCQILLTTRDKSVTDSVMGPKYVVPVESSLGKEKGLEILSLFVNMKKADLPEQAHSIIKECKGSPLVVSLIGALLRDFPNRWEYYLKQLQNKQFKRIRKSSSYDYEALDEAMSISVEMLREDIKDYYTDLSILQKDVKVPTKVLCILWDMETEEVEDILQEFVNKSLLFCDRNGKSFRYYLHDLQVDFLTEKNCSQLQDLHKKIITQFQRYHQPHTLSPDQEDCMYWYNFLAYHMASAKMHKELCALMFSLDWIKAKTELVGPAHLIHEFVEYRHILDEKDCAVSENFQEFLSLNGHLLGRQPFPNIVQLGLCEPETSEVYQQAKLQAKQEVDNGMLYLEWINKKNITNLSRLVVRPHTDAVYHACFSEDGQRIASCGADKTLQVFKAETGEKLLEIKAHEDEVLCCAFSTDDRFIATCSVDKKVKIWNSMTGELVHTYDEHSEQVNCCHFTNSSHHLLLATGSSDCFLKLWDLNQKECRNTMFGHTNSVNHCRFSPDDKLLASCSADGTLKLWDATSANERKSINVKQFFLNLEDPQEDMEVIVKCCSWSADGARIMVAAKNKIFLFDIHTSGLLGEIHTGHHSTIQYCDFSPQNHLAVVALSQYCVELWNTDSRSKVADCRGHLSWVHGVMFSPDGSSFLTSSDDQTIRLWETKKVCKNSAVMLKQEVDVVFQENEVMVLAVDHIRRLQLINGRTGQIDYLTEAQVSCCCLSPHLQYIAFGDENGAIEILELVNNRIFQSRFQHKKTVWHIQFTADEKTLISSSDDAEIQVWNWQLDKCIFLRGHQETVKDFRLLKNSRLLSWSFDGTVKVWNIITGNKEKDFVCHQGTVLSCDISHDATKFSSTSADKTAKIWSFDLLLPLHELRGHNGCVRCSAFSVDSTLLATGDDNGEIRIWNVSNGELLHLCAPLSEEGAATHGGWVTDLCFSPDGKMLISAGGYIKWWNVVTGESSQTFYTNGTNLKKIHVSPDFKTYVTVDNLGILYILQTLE

Compound | release of cytochrome c-GFP fusion from the mitochondria [1] | caspase activation [2] | binding to Apaf-1 [3]
CN[C@@H]1C[C@H]2O[C@@](C)([C@@H]1OC)n1c3ccccc3c3c4c(c5c6ccccc6n2c5c31)C(=O)NC4 [staurosporine] | led to release of the fusion from the mitochondria |  | 
Horse cytochrome c: horse wild type cytochrome c, highly homologous to human cytochrome c |  | can initiate caspase activation | 
K72A: cytochrome c mutant, lysine 72 to alanine, from the literature in vitro studies (Kluck et al.; Yu et al.) |  | no detectable binding or caspase-9 activation | no detectable binding
yeast cytochrome c: yeast wild type cytochrome c |  | nor activate caspase | did not measurably bind
